One test deals with Shigella dysenteriae. The test is classed as cell-based. To be noted: disc 6: NaCl 400 mg/mL (control).
Another test deals with Salmonella tifi. The format is cell-based. To be noted: disc 6: NaCl 400 mg/mL (control).
For the next test, the system named is Brucella suis. The test is classed as cell-based. The settings on record: disc 6: NaCl 400 mg/mL (control).
For the next test, the system named is Streptococcus pneumoniae. To be noted: disc 6: NaCl 400 mg/mL (control).
The next test has as its system Streptococcus pyogenes. To be noted: disc 6: NaCl 400 mg/mL (control).
In a further test the test system is Streptococcus aureus. To be noted: disc 6: NaCl 400 mg/mL (control).
The subject of another test is Neisseria gonorrhoeae. To be noted: disc 6: NaCl 400 mg/mL (control).
The subject of the next test is Neisseria meningitides. To be noted: disc 6: NaCl 400 mg/mL (control).
The next test concerns Pseudomona aeruginosa. The settings on record: disc 6: NaCl 400 mg/mL (control).
The subject of a further test is Shigella flexneri. The settings on record: disc 6: NaCl 400 mg/mL (control).
A further test relates to Escherichia coli. To be noted: disc 6: NaCl 400 mg/mL (control).
In another test the test system is Proteus vulgaris. To be noted: disc 6: NaCl 400 mg/mL (control).
The test system of another test is Haemophilus influenzae. The settings on record: disc 6: NaCl 400 mg/mL (control).
In a further test the test system is Klebsiela. To be noted: disc 6: NaCl 400 mg/mL (control).
The next test has as its system Rauscher MuLV. Nature of the test: Rauscher Murine Virus (Rauscher MuLV) system in vivo, splenomegaly. To be noted: rivabirin control, dose not given; in comparison with infected animals that received no treatment.

On to `[Cl-].[Na+]` [NaCl], for which the inhibitory halos in the test with Shigella dysenteriae, in the test on Salmonella tifi, with Brucella suis, in the test on Streptococcus pneumoniae, in the test with Streptococcus pyogenes and in the test with Streptococcus aureus was 6 mm throughout. Also, the inhibitory halos is on record as 14 mm in the test with Neisseria gonorrhoeae; 6 mm in the test on Neisseria meningitides; 6 mm in the test with Pseudomona aeruginosa; 6 mm in the test with Shigella flexneri; 6 mm in the test with Escherichia coli; 6 mm in the test with Proteus vulgaris. In addition, the inhibitory halos in the test with Haemophilus influenzae and with Klebsiela was 6 mm throughout.
Turning to `NC(=O)c1ncn([C@@H]2O[C@H](CO)[C@@H](O)[C@H]2O)n1` [rivabirin], the “reduction of the spleen size” value in the test on Rauscher MuLV is listed as 74%.

Values taken from patent publication EP1790349A1.
